According to publication PMC7822874, “Chemoprotective antimalarials identified through quantitative high-throughput screening of Plasmodium blood and liver stage parasites” (Scientific Reports, 2021):
Values joined by “and” are separate entries in the source; they are usually repeats but may differ in a detail not shown here. Identical values can stand only once. Like-named read-outs stand apart in the source and are kept apart here.

How the values were obtained:
[1] = system: P. berghei-ANKA-GFP-LucCON liver stage parasites in HepG2-A16-CD81EGFP cells; experiment: P. berghei liver stage Pb-Luc assay, Method 1 (UCSD, 1536-well); type: cell-based, Plasmodium berghei; settings: for Max Resp (signal direction of the dose response) / AC50 / Log AC50 (M): Method 1; for Max Resp (signal direction of the dose response): Decrease = decreasing P. berghei viability with dose, Increase = increasing signal, Inactive = no dose response; for activity at 1 µM / activity at 3 µM: 48 h, average of 2 wells, 1536-well plate; for activity at 1 µM: nominal 1 uM (10 mM stock), […] for 15 mM, 1.2 uM for 12 mM, 2 uM for 20 mM stock; for activity at 3 µM: nominal 3 uM (10 mM stock), 4.5 uM for 15 mM, 3.6 uM for 12 mM, 6 uM for 20 mM stock
[2] = system: P. falciparum Dd2 (clone B2) asexual blood stage parasites; experiment: P. falciparum Dd2 asexual blood stage SYBR Green-I 72 h proliferation assay (qHTS); type: cell-based, Plasmodium falciparum
HepG2-A16-CD81EGFP cells = settings: for Average HepG2 3 µM response( %): averaged response (percent)
[3] = system: T1, Plasmodium falciparum Dd2-attB-ScDHODH (transgenic line expressing yeast DHODH), asexual blood stages; experiment: organism not typed; design: replicate k of 3 (each line is one of three independent assays; the three lines of one compound and parasite line follow each other); settings: 72 h, n = 1; for AC50: read-out: Individual replicates / Log AC50 (converted)
T1 construct: Dd2-attB-ScDHODH, the transgenic line that expresses yeast DHODH
Method in brief: (§1)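 Both lines were tested side by side with selected compounds, repeated in three independent assays. Differences between parental and ScDHODH-expressing parasites were then assessed with a two-sided Student's t-test.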

[4] = system: T2, Plasmodium falciparum Dd2-attB (parental line), asexual blood stages; experiment: microbe, parasite or virus in culture; design: replicate k of 3 (each line is one of three independent assays; the three lines of one compound and parasite line follow each other); settings: n = 1; for Individual replicates / Log AC50 (M): 72 h; for AC50: Plasmodium falciparum, DD2, 72 h, read-out: Individual replicates / Log AC50 (converted)
T2 construct: Dd2-attB, the isogenic parental line
Method in brief: as §1

[5] = system: luciferase-expressing P. berghei liver stage parasites in HepG2 cells; experiment: Inhibition of liver-stage development assay (ILSDA), Method 2 (WRAIR, 96-well); type: cell-based, Plasmodium berghei; settings: for Max Resp (signal direction of the dose response): Decrease = decreasing P. berghei viability with dose, Increase = increasing signal, Inactive = no dose response; for Log AC50 (M): log10 of molar AC50 from Hill fit; for Activity direction (Decrease / Inactive): P. berghei liver stage
[6] = system: Plasmodium falciparum Dd2 asexual blood stage parasites; experiment: microbe, parasite or virus in culture; design: species or system Plasmodium falciparum Dd2 in human erythrocytes; single determination (one 11-point concentration-response curve); settings: Plasmodium falciparum, DD2, Erythrocyte, 72 h; read-out: AC50
in vitro = settings: human, HepG2-A16-CD81EGFP cells, uninfected
[7] = Hill fit, 50% of maximum activity response, read-out: AC50
[8] = log10 of molar AC50 from Hill fit
[9] = Plasmodium berghei, Hill fit, 50% of maximum activity response, read-out: AC50
[10] = Plasmodium berghei, log10 of molar AC50 from Hill fit, read-out: Log AC50 (converted)
[11] = Method 2, Hill fit, 50% of maximum activity response, read-out: AC50
[12] = Plasmodium berghei, repeat 1, read-out: Pb-Luc signal, 1 uM, repeat 1
[13] = Plasmodium berghei, repeat 2, read-out: Pb-Luc signal, 1 uM, repeat 2
[14] = Plasmodium berghei, repeat 3, read-out: Pb-Luc signal, 1 uM, repeat 3
[15] = Plasmodium berghei, repeat 1, read-out: Pb-Luc signal, 3 uM, repeat 1
[16] = Plasmodium berghei, repeat 2, read-out: Pb-Luc signal, 3 uM, repeat 2
[17] = Plasmodium berghei, repeat 3, read-out: Pb-Luc signal, 3 uM, repeat 3
[18] = nominal 1 uM (10 mM stock), […] for 15 mM, 1.2 uM for 12 mM, 2 uM for 20 mM stock, average of 2 wells, repeat 2
[19] = nominal 3 uM (10 mM stock), 4.5 uM for 15 mM, 3.6 uM for 12 mM, 6 uM for 20 mM stock, average of 2 wells, repeat 2

Structure (SMILES)	Max Resp (signal direction of the dose response) [1]	AC50 [1, 9] [nM]	AC50 [1, 10] [nM]	Individual replicates / Log AC50 (M) [3]	Individual replicates / Log AC50 (M) [4]	AC50 [4] [nM]	Max Resp (signal direction of the dose response) ([5]; Method 2)	AC50 [5, 11] [nM]	Log AC50 (M) ([5]; Method 2)	AC50 [6] [nM]	activity at 1 µM [1, 12] [%]	activity at 1 µM [1, 13] [%]	activity at 1 µM [1, 14] [%]	activity at 3 µM [1, 15] [%]	activity at 3 µM [1, 16] [%]	activity at 3 µM [1, 17] [%]	Activity direction (Decrease / Inactive) ([5]; Method 2, dose response)	viability at 48 h, 1 µM (in vitro) [%]	viability at 48 h, 3 µM (in vitro) [%]	AC50 [3] [nM]	also measured
COc1ccc(-c2noc(-c3cccn3CC(=O)Nc3ccccc3)n2)cc1F [NCGC00445500]																					Average P. berghei 3 µM response( %) ([1]; P. berghei liver stage, 3 µM dose, averaged response (percent)): 183%; Average P. berghei 1 µM response (%) ([1]; P. berghei liver stage, the header list (r8) defines it as the 1 µM dose, averaged response (percent)): 170%; Pf ABS Log AC50 (M) ([2]; averaged P. falciparum asexual blood stage potency, log10 of AC50 in M): -5.625 M; Average HepG2 3 µM response( %) (HepG2-A16-CD81EGFP cells; HepG2, 3 µM dose): 104%; Average HepG2 3 µM response( %) (HepG2-A16-CD81EGFP cells; HepG2, the header list (r10) describes it as the 1 µM dose): 101%
Cc1ccc(NC2=C(c3ccc(C(F)(F)F)cc3)C(=O)c3ccccc32)cc1F [NCGC00107266-01]	Decrease	1260	1260	-5.4986 Log AC50 (M) and -5.1986 Log AC50 (M) and -5.3986 Log AC50 (M)	-6.2486 Log AC50 (M) and -6.2986 Log AC50 (M)	399	Decrease	79	-7.100	1880											AC50 [1, 7]: 1410 nM; Log AC50 (M) [1, 8]: -5.850 M
C[C@H]1[C@@H](O)O[C@@H]2O[C@@]3(C)CC[C@H]4[C@H](C)CC[C@@H]1[C@@]24OO3 [dihydroartemisinin, reference compound]																					AC50 ([2]; Plasmodium falciparum, DD2, 72 h, SYBR Green 72 h, read-out: AC50, Dd2 ABS parasites): 2 nM
Oc1ccc(CN2CC(CNc3ccccc3)C3(C2)CN(c2ccccc2)C3)cc1 (centres unmarked) [NCGC00416032-01]		1410	1410	-5.6373 Log AC50 (M) and -5.9873 Log AC50 (M)	-5.9373 Log AC50 (M) and -6.1873 Log AC50 (M)	818				611	52.9	59	77.5	5.3	6.04	8.95	Inactive	106	106		HepG2 viability signal, 1 uM, repeat 2 (HepG2-A16-CD81EGFP cells; [18]): 101.59%; HepG2 viability signal, 3 uM, repeat 2 (HepG2-A16-CD81EGFP cells; [19]): 99.28%
CCCN1C(CC(C)C)=N[S+](=O)([O-])c2cc(NC(=O)c3ccco3)ccc21 [NCGC00473219-01]	Decrease	631	631	-5.5986 Log AC50 (M) and -5.4986 Log AC50 (M) and -5.2486 Log AC50 (M)	-6.1986 Log AC50 (M) and -5.7986 Log AC50 (M) and -6.3486 Log AC50 (M)					7500	32.3	25.4	19.9	11.9	8.91	10.7	Inactive	103	105		HepG2 viability signal, 1 uM, repeat 2 (HepG2-A16-CD81EGFP cells): 101.29%; HepG2 viability signal, 3 uM, repeat 2 (HepG2-A16-CD81EGFP cells): 102.75%
Cc1ccc(NC2=C(c3ccc(C(F)(F)F)cc3)C(=O)c3ccccc32)cc1C [NCGC00107300-01]	Decrease	447	447	-5.4986 Log AC50 (M) and -5.2486 Log AC50 (M)	-5.7486 Log AC50 (M) and -5.5986 Log AC50 (M)	1590	Decrease	398	-6.400	2110										3990	AC50 [1, 7]: 794 nM; Log AC50 (M) [1, 8]: -6.100 M
COc1ccc(NC2=C(c3ccc(C(F)(F)F)cc3)C(=O)c3ccccc32)cc1 [NCGC00107310-01]	Decrease	1780	1780	-5.7986 Log AC50 (M) and -5.8986 Log AC50 (M) (2×)	-6.3486 Log AC50 (M) and -6.1486 Log AC50 (M) and -6.1986 Log AC50 (M)		Decrease	141	-6.850	2110											
CCCN1C(CC(C)C)=N[S+](=O)([O-])c2cc(NC(=O)c3ccccc3Cl)ccc21 [NCGC00473218-01]				-5.0486 Log AC50 (M)	-5.5486 Log AC50 (M) and -5.3986 Log AC50 (M) and -5.1986 Log AC50 (M)												Inactive			7970	
Cc1ccc(C)c(NC2=C(c3ccc(C(F)(F)F)cc3)C(=O)c3ccccc32)c1 [NCGC00107302-01]		1580	1580	-4.9986 Log AC50 (M) and -5.0486 Log AC50 (M)	-5.6986 Log AC50 (M) and -5.7486 Log AC50 (M)	1130	Decrease	501	-6.300	4730										7970	
Cc1cc(C)cc(C(=O)Nc2ccc3c(N4CCCC4)ncnc3c2)c1 [NCGC00425487-01]		1000	1000							2370	67.5	99.6	77.5	25.9	34.2	15.9	Decrease	89	27.1		AC50 ([5]; Plasmodium berghei, HepG2, P. berghei liver stage, Method 2, dose response, read-out: AC50): 15800 nM; AC50 ([5]; Plasmodium berghei, HepG2, P. berghei liver stage, Method 2, dose response, read-out: Log AC50 (converted)): 15800 nM; HepG2 viability signal, 1 uM, repeat 2 (HepG2-A16-CD81EGFP cells; [18]): 92.65%; HepG2 viability signal, 3 uM, repeat 2 (HepG2-A16-CD81EGFP cells; [19]): 36.60%
